From patent publication US7109341B2, “Therapeutic amides” (Wayne State University, priority 2002, dated 2006)
“And” between values parts separate entries of the source, which are not always exact repeats. Identical values can stand only once. “Also recorded” adds a separate entry of the source. Like-named read-outs stand apart in the source and are kept apart here.

How the values were obtained:
[1] = tested on: Pancreatic Ductal Adenocarcinoma 03;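 further: mice carrying bilateral subcutaneous tumors, with tumor weight estimated from two-dimensional caliper readings taken twice a week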
Text: Pancreatic ductal adenocarcinoma-03, mammary adenocarcinoma-16/C, mammary adenocarcinoma-17/Adr, and human melanoma LOX were used in the studies. Tumors were maintained in the mouse strain of origin (C57B1/6 for Panc-03 and C3H for the mammary tumors). Balb/c SCID mice (B and T cell deficient) were used for tumor maintenance and chemotherapy trials involving the human melanoma LOX. Tumors were transplanted into the appropriate F1 hybrid (B6D2F1=C57B 1/6 female× DBA/2 male) or the strain of origin for the chemotherapy trials. Individual mouse body weights for each experiment were within 5 grams, and all mice were over 17 grams at the start of therapy. The mice were supplied food and water ad libitum.
Animals were pooled, implanted subcutaneously with 30 to 60 mg tumor fragments by a 12 gauge trocar on day 0, and again pooled before unselective distribution to the various treatment and control groups. For early stage treatment, chemotherapy was started within 1 to 3 days after tumor implantation while the number of cells was relatively small (10^7 to 10^8 cells). For upstaged or advanced staged trials, the tumors were allowed to grow for five or more days before treatment was started. Tumors were measured with a caliper twice weekly. […] Tumor weights are estimated from two-dimensional measurements:
Tumor weight (in mg)=(a×b^2)/2, where a and b are the tumor length and width in (mm), respectively.
a) Tumor growth delay (T−C value), where T is the median time (in days) required for the treatment group tumors to reach a predetermined size (e.g., 1,000 mg), and C is the median time (in days) for the control group tumors to reach the same size. Tumor-free survivors were are excluded from these calculations (cures are tabulated separately). This value is an important criterion of anti-tumor effectiveness because it allows the quantification of tumor cell kill.
b) Calculation of tumor cell kill for subcutaneously (SC) growing tumors. […] The conversion of the T−C values to log10 cell kill is possible because the Td of tumors re-growing post treatment (Rx) approximates the Td values of the tumors in untreated control mice.
It should be noted that an activity rating of +++ to ++++ is needed to effect partial regression (PR) or complete regression (CR) of 100 to 300 mg size masses of most transplanted solid tumors of mice. Thus, an activity rating of + or ++ would not be scored as active by usual clinical criteria. A PR is a reduction in tumor mass to less than 50% of pretreatment size. A CR is a reduction in tumor mass to below palpable size (i.e., reduction to zero detectable mass).
The T/C value in percent is an indication of anti-tumor effectiveness: A T/C=0% means no tumor growth. A T/C=100% means no anti-tumor activity, i.e., the treated and control tumors grew equally. […] A T/C value<10% is considered to indicate highly significant anti-tumor activity, and is the level used by NCI to justify a clinical trial if toxicity, formulation, and certain other requirements are met (termed DN-2 level activity).
(§1) Compounds as their sodium salts were prepared in a 1% sodium bicarbonate solution, H2O or phosphate buffered saline (PBS), with pH adjusted to 7.0 to 7.5 with HCl, and administered intravenously (IV) or orally (PO), at injection volumes of 0.2 mL per injection.
Thus, for this test, all compounds initially were to be given IP, in an attempt to identify a suitable alternate route of administration.

[2] = Water solubility noted on drug preparation for injection; assay type: physicochemical; conditions: for Preparation: state of the injection preparation: white solid + 3% EtOH + 1% POE + 0.25% NaHCO3 + saline, pH = 8.0
Experimental: as §1

[3] = Cage 8, 135 mg/kg IP day 3, then SC days 5, 7, 11, 13, 15, total 615 mg/kg
[4] = Cage 9, IP, 80 mg/kg/inj days 3, 5, 7, 11, 13, 15, total 480 mg/kg
[5] = Cage 10, IP, 50 mg/kg/inj Q2d×7 from day 3, total 350 mg/kg
[6] = IP d 3 then SC d5, 7, 11, 13, 15, total dosage 615 mg/kg, BDF1 males
[7] = IP, Q2d: 3–15, total dosage 350 mg/kg, BDF1 males
[8] = IP, d3, 5, 7, 11, 13, 15, total dosage 480 mg/kg, BDF1 males
[9] = Cage 2, IP, 135 mg/kg day 3 only
[10] = Cage 3, IP, 80 mg/kg day 3 only
[11] = Cage 4, 50 mg/kg IP day 3, then IV Q2d×7 through day 15, total 455 mg/kg
[12] = IP d3 then IV Q2d: 5–15, total dosage 455 mg/kg, BDF1 males
[13] = IP, d 3, total dosage 80 mg/kg, BDF1 males
[14] = IP, d 3, total dosage 135 mg/kg, BDF1 males

## CC(Oc1ccc(Oc2ccc3ccc(Br)cc3n2)cc1)C(=O)NCC(=O)O [Compound 14h (R), {2-[4-(7-Bromo-quinolin-2-yloxy)-phenoxy]-propionylamino}acetic acid]
[1]; [3]
  Activity Rating: ++ (1.3–1.9)
  T/C: 3%
  log cell kill: 1.9
[1]; [4]
  T/C: 6%
  log cell kill: 1.7
[1]; [5]
  Activity Rating: + (0.7–1.2)
  T/C: 16.5%
  log kill: 1.0
[1]; [6]
  Comments (Active/Inactive): Inactive
  Comments (activity rating): (++) (1.3–1.9)
  Drug Death: 0/5
  Log Cell Kill: 1.9
  Median Tumor Burden in mg on d17: 63 mg
  T-C: 13 days
  T/C %: 3%
  Time to 1000 mg: 28 days
  Tumor Free on 148: 0/5
[1]; [7]
  Comments (Active/Inactive): Active
  Comments (activity rating): (+) (0.7–1.2)
  Drug Death: 0/5
  Log Cell Kill: 1.0
  Median Tumor Burden in mg on d17: 304 mg
  T-C: 7 days
  T/C %: 16.5%
  Time to 1000 mg: 22 days
  Tumor Free on 148: 0/5
[1]; [8]
  Comments (Active/Inactive): Active
  Comments (activity rating): (++) (1.3–1.9)
  Drug Death: 0/5
  Log Cell Kill: 1.7
  Median Tumor Burden in mg on d17: 108 mg
  T-C: 12 days
  T/C %: 6%
  Time to 1000 mg: 27 days
  Tumor Free on 148: 0/5
[1]; mouse, in vivo
  Day of Wt. Loss Nadir: 9 days and 10 days and 8 days
  day of full weight recovery: 20 days and 15 days
  day of weight loss nadir: 9 days and 10 days and 8 days
  weight loss nadir: −13.3%
[2]
  water solubility: Low water solubility limits; also recorded: much lower water solubility
  Preparation: state of the injection preparation: Compound 14h (R): white solid + 3% EtOH + 1% POE + 0.25% NaHCO3 + saline → suspension (pH = 8.0); 0.5 ml/mouse/inj, IP; 0.2 ml/mouse/inj, SC.

## CC(Oc1ccc(Oc2cnc3ccc(Cl)cc3n2)cc1)C(=O)NCC(=O)O [Compound 14i (R), {2-{4-(7-Chloro-quinoxalin-2-yloxy)-phenoxy}propionylamino}acetic acid]
[1]; [9]
  Activity Rating: + (0.7–1.2)
  T/C: 10%
  log cell kill: 1.1
[1]; [10]
  Activity Rating: + (0.7–1.2)
  T/C: 37%
  day of death: 4 days
  deaths: one injection death
  log kill: 0.7
[1]; [11]
  Activity Rating: ++ (1.3–1.9)
  T/C: 10% and 8%
  day of full weight recovery: ≤ 11 days
  day of weight loss nadir: 7 days
  log kill: 1.6
[1]; [12]
  Comments (Active/Inactive): Active
  Comments (activity rating): (++) (1.3–1.9)
  Drug Death: 0/5
  Log Cell Kill: 1.6
  Median Tumor Burden in mg on d17: 151 mg
  T-C: 11 days
  T/C %: 8%
  Time to 1000 mg: 26 days
  Tumor Free on 148: 0/5
[1]; [13]
  Comments (Active/Inactive): Active
  Comments (activity rating): (+) (0.7–1.2)
  Drug Death: 1/5
  Drug Death (day of death): (d4)
  Log Cell Kill: 0.7
  Median Tumor Burden in mg on d17: 675 mg
  T-C: 5 days
  T/C %: 37%
  Time to 1000 mg: 20 days
  Tumor Free on 148: 0/5
[1]; [14]
  Comments (Active/Inactive): Active
  Comments (activity rating): (+) (0.7–1.2)
  Drug Death: 0/5
  Log Cell Kill: 1.1
  Median Tumor Burden in mg on d17: 189 mg
  T-C: 7.5 days
  T/C %: 10%
  Time to 1000 mg: 22.5 days
  Tumor Free on 148: 0/5
[1]; mouse, in vivo
  Day of Wt. Loss Nadir: 7 days and 4 days
[1]; mouse, in vivo, ip, 135 mg/kg
  day of full weight recovery: ≤ 9 days
  day of weight loss nadir: 7 days
  toxicity observations: prolonged pain response
[2]
  water solubility: good water solubility
  Preparation: state of the injection preparation: Compound 14i (R): white solid + 3% EtOH + 1% POE + 0.25% NaHCO3 + saline → solution (pH = 8.0); 0.5 ml/mouse/inj, IP; 0.2 ml/mouse/inj, IV.
